According to PMC4551797 (PLoS ONE, 2015):
Read-outs that look alike come from different tables or passages of the source.

Molecular target: T1, mouse TGR5 (Mus musculus, UniProt Q80SS6)
T1 sequence (Q80SS6 1-329): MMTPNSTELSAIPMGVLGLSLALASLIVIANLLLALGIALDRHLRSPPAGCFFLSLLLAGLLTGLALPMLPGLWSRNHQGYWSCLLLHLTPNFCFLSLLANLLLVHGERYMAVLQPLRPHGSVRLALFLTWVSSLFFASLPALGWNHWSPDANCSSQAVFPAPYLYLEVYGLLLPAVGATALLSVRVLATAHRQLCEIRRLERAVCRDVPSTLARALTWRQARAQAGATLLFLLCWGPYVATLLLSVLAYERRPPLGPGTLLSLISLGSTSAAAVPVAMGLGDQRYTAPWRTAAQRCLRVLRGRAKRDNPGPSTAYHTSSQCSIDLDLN
Assay: cAMP production in HEK-293 cells stably transfected with the mouse TGR5 gene (HTRF cAMP assay)
Assay type: cell-based
Design: expressed in transfected cells
Protocol: HEK-293 cells were obtained from ATCC and a clonal HEK-293 line overexpressing mouse TGR5 was prepared. Both were maintained in Dulbecco’s modified Eagle’s medium (DMEM) containing 10% fetal bovine serum (FBS) and penicillin /streptomycin. Mouse STC-1 cells were obtained from ATCC under agreement with the Cold Spring Harbor Laboratories and maintained in DMEM containing 10% FBS and penicillin /streptomycin. NCI-H716 cells were obtained from ATCC and were maintained in RPMI-1640 with 10% FBS. NCI-H716 cells were cultured in 96 well plate coated with Matrigel (BD). After 72 hours, cAMP production stimulated with TGR5 agonists was measured using HTRF cAMP assay kit (CISBIO). The level of cAMP in suspensions of STC-1 cells stimulated with increasing concentrations of TGR5 agonists was also determined. […] The production of GLP-1 was determined using a GLP-1 Assay (7–36) amide kit (Mesoscale Discovery) following the manufacturer’s instructions. […]
Compound 18 is a novel small molecule agonist of TGR5 developed by Eli Lilly and Company (MW = 508.62, Fig 2A). […] In order to determine potency of compound 18 for the mouse and human TGR5 receptor in cells with endogenous levels of receptor, we measured compound 18-stimulated cAMP production and GLP-1 secretion in both mouse (STC-1) and human (NCI-H716) enteroendocrine cell lines, that we have shown to express TGR5 natively (Fig 1). […]

CC(=O)N1CCC(C(C)N(C(=O)COc2cccc3sc4nc(C)cn4c23)c2ccc(F)cc2)CC1 (centres unmarked) [compound 18] gave an EC50 (HEK-293 cells over-expressing mouse TGR5, read-out: EC50, cAMP production) of 24.7 nM and an EC50 (cAMP, unit inferred, x-axis in nM, read-out: EC50 HEK-293-mTGR5 (Fig 2B inset)) of 24.7 nM.
